Test results taken from patent publication US7799809B2, “Carboxamide compounds and their use as calpain inhibitors” (Abbott GmbH & Co. KG, priority 2006, dated 2010).

Key:
cathepsin L = molecular target: T1, cathepsin L (Homo sapiens, UniProt P07711); assay: Cathepsin L enzyme inhibition in vitro (kinetic fluorescence assay); assay type: biochemical; settings: cathepsin L isolated from human liver vs calpain I
T1 construct: cathepsin L—isolated from human liver (Calbiochem #219402); purchased Calbiochem 219402; host or cells: human liver (tissue-derived)
Method: (§1) The following solutions and buffers were employed: • HBS (for 40 ml): 800 μl M HEPES; 2.16 ml 100 mM KCl; 4.8 ml 1M NaCl; 3.59 ml 5% glucose; 60 μl μM MgSO4; 400 μl 100 mM Na pyruvate, 28.19 ml water; pH 7.2-7.5. • lysis buffer (for 20 ml): 400 μl M Tris pH 8.2; 2.74 ml 1M NaCl; 520 μl 0.5M EDTA; 2 ml 10% triton X-100; 0.8 ml (=1:25) CompletePlus (1 tablet/2 ml H2O); 200 μl 100 mM Pefabloc; 13.34 ml water, pH 8.2. • TBST (10×) (for 1 l): 100 mM Tris (12.1 g); 1.5M NaCl (87 g); 1% Tween 20 (10 g), adjusted to pH 8. I Enzyme Inhibition In Vitro: • Testing for blockade of the corresponding enzymic activities was carried out by means of kinetic fluorescence assays (excitation 390 nm, emission 460 nm). • Apparent Ki values were calculated from the experimentally determined IC50 values by the Cheng-Prussoff relation assuming a reversible competitive enzyme inhibition. The Km values of the substrates used under the assay conditions indicated above were: 90 μM (Z-Phe-Arg-AMC, cathepsin B), 10 μM (Z-Gly-Pro-Arg-AMC, cathepsin K), 2 μM (Z-Phe-Arg-AMC, cathepsin L), and 30 μM (Z-Val-Val-Arg-AMC, cathepsin S). • The indicated Ki values are averages of the inhibition constants calculated on the basis of 2 to 4 independent dose-effect plots.
(§2) The following assays were used: • 1. Calpain I: • 20 nM calpain-I—isolated from human erythrocytes (Calbiochem #208713), 100 μM Suc-Leu-Tyr-AMC (Bachem #1-1355) as substrate in buffer with 62 mM imidazole, 0.3 mM CaCl2, 0.10% CHAPS, 0.05% BSA, 1 mM DTT at pH 7.3 and room temperature. • 2. Cathepsin B: • 0.25 nM cathepsin B—isolated from human liver (Calbiochem #219362), 100 μM Z-Phe-Arg-AMC (Bachem #I-1160) as substrate 50 mM MES, 2 mM EDTA, 0.05% Brij 35, 2.5 mM L-cysteine, pH 6.0, room temperature. • 3. Cathepsin K: • 3 nM cathepsin K—activated from recombinant human procathepsin K from E. coli (Calbiochem #342001), 10 μM Z-Gly-Pro-Arg-AMC (Biomol #P-142) as substrate in 50 mM MES, 2 mM EDTA, 0.05% Brij 35, 2.5 mM L-cysteine, pH 6.0, room temperature. • 4. Cathepsin L: • 1 nM cathepsin L—isolated from human liver (Calbiochem #219402), 2 μM Z-Phe-Arg-AMC (Bachem #1-1160) as substrate in 50 mM MES, 2 mM EDTA, 0.05% Brij 35, 2.5 mM L-cysteine, pH 6.0, room temperature. • 5. Cathepsin S: • 0.5 nM recombinant human cathepsin S from E. coli (Calbiochem #219343), 20 μM Z-Val-Val-Arg-AMC (Bachem #1-1540) as substrate in 50 mM MES, 2 mM EDTA, 0.05% Brij 35, 2.5 mM L-cysteine, pH 6.0, room temperature. • The results of the in vitro determination are indicated in Table 1. The following abbreviations are used in Table 1: • The “Calpain activity” column, ++ stands for a calpain Ki (Ki(calpain)) of ≦40 nM and + means: 40 nM<Ki(Calpain)≦100 nM. • The “Sel. cat. B” column indicates the Ki(cathepsin B)/Ki(calpain) ratio. In this connection, ++ means a Ki(cathepsin B)/Ki(calpain) ratio of ≧30 and + means 10≦Ki(cathepsin B)/Ki(calpain)<30. • The “Sel. cat. K” column indicates the Ki(cathepsin K)/Ki(calpain) ratio. In this connection, ++ means a Ki(cathepsin K)/Ki(calpain) ratio of ≧30 and + means 10≦Ki(cathepsin K)/Ki(calpain)<30. • The “Sel. cat. L” column indicates the Ki(cathepsin L)/Ki(calpain) ratio. In this connection, ++ means a Ki(cathepsin L)/Ki(calpain) ratio of ≧50 and + means 30≦Ki(cathepsin L)/Ki(calpain)<50. • The “Sel. cat. S” column indicates the Ki(cathepsin S)/Ki(calpain) ratio. In this connection, ++ means a Ki(cathepsin S)/Ki(calpain) ratio of ≧100 and + means 50≦Ki(cathepsin S)/Ki(calpain)<100.

cathepsin S = molecular target: T2, cathepsin S (Homo sapiens, UniProt P25774); assay: Cathepsin S enzyme inhibition in vitro (kinetic fluorescence assay); assay type: biochemical; settings: recombinant human cathepsin S vs calpain I
T2 construct: purchased Calbiochem 219343; host or cells: E. coli
Method: as §1, §2

T1 sequence (P07711 114-333): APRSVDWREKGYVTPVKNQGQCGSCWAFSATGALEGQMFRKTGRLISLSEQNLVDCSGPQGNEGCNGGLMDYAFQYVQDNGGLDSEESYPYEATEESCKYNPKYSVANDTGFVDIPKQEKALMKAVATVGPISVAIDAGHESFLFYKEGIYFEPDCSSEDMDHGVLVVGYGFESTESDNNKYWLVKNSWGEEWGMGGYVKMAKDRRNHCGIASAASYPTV
T2 sequence (P25774 115-331): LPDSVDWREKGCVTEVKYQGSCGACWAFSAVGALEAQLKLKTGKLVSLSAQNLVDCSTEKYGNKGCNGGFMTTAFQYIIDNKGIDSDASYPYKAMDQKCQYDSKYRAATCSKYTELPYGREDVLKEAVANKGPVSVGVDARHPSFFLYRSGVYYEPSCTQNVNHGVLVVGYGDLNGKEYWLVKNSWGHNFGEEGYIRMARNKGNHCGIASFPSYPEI

Structure (SMILES) | Sel cat. L: Ki(cathepsin L)/Ki(calpain) ratio (cathepsin L) | Sel cat. S: Ki(cathepsin S)/Ki(calpain) ratio (cathepsin S)
NC(=O)C(=O)C(Cc1cccs1)NC(=O)c1cccnc1-n1ccc(-c2ccc(F)cc2)n1 (stereo not drawn) [Example 57, N-[3-Amino-2,3-dioxo-1-(2-thienylmethyl)propyl]-2-[3-(4-fluorophenyl)-1H-pyrazol-1-yl]nicotinamide] | ++ (++ means a Ki(cathepsin L)/Ki(calpain) ratio of ≧50) | ++ (++ means a Ki(cathepsin S)/Ki(calpain) ratio of ≧100)
NC(=O)C(=O)C(Cc1ccccc1)NC(=O)c1cccnc1-n1ccc(-c2ccc(Cl)cc2)n1 (stereo not drawn) [Example 39, N-(3-Amino-1-benzyl-2,3-dioxopropyl)-2-[3-(4-chlorophenyl)-1H-pyrazol-1-yl]nicotinamide] | ++ (++ means a Ki(cathepsin L)/Ki(calpain) ratio of ≧50) | ++ (++ means a Ki(cathepsin S)/Ki(calpain) ratio of ≧100)
NC(=O)C(=O)C(Cc1ccccc1)NC(=O)c1cccnc1-n1cc(COc2ccccc2)c(-c2ccc(F)cc2)n1 (stereo not drawn) [Example 179, N-[3-Amino-2,3-dioxo-1-(phenylmethyl)propyl]-2-{3-(4-fluorophenyl)-4-[(phenyloxy)methyl]-1H-pyrazol-1-yl}pyridine-3-carboxamide] | + (+ means 30≦Ki(cathepsin L)/Ki(calpain)<50) | ++ (++ means a Ki(cathepsin S)/Ki(calpain) ratio of ≧100)
NC(=O)C(=O)C(Cc1ccccc1)NC(=O)c1cccnc1-n1cc2c(n1)-c1ccccc1OCC2 (stereo not drawn) [Example 141, N-[3-Amino-2,3-dioxo-1-(phenylmethyl)propyl]-2-(4,5-dihydro-2H-[1]benzoxepino[5,4-c]pyrazol-2-yl)pyridine-3-carboxamide] | ++ (++ means a Ki(cathepsin L)/Ki(calpain) ratio of ≧50) | ++ (++ means a Ki(cathepsin S)/Ki(calpain) ratio of ≧100)
NC(=O)C(=O)C(Cc1ccccc1)NC(=O)c1ccccc1-n1ccc(-c2ccccc2)n1 (stereo not drawn) [Example 106, N-[3-Amino-2,3-dioxo-1-(phenylmethyl)propyl]-2-(3-phenyl-1H-pyrazol-1-yl)benzamide] | + (+ means 30≦Ki(cathepsin L)/Ki(calpain)<50) | ++ (++ means a Ki(cathepsin S)/Ki(calpain) ratio of ≧100)
COc1ccc(-c2cn(-c3ncccc3C(=O)NC(Cc3ccccc3)C(=O)C(N)=O)cn2)cc1 (stereo not drawn) [Example 13, N-(3-Amino-1-benzyl-2,3-dioxopropyl)-2-[4-(4-methoxyphenyl)-1H-imidazol-1-yl]nicotinamide] | ++ (++ means a Ki(cathepsin L)/Ki(calpain) ratio of ≧50) | + (+ means 50≦Ki(cathepsin S)/Ki(calpain)<100)
CCCCC(NC(=O)c1cccnc1-n1cnc(-c2ccc(C(F)(F)F)cc2)c1)C(=O)C(N)=O.Cl (stereo not drawn) [Example 17, N-{1-[Amino(oxo)acetyl]pentyl}-2-{4-[4-(trifluoromethyl)phenyl]-1H-imidazol-1-yl}nicotinamide hydrochloride] | ++ (++ means a Ki(cathepsin L)/Ki(calpain) ratio of ≧50) | + (+ means 50≦Ki(cathepsin S)/Ki(calpain)<100)
NC(=O)C(=O)C(Cc1ccccc1)NC(=O)c1cccnc1-n1cc2ccccc2n1 (stereo not drawn) [Example 78, N-(3-Amino-1-benzyl-2,3-dioxopropyl)-2-(2H-indazol-2-yl)nicotinamide] | ++ (++ means a Ki(cathepsin L)/Ki(calpain) ratio of ≧50) | + (+ means 50≦Ki(cathepsin S)/Ki(calpain)<100)
CCCCC(NC(=O)c1cccnc1-n1ccc(-c2ccc(OC)cc2)n1)C(=O)C(N)=O (stereo not drawn) [Example 49, N-{1-[Amino(oxo)acetyl]pentyl}-2-[3-(4-methoxyphenyl)-1H-pyrazol-1-yl]nicotinamide] | + (+ means 30≦Ki(cathepsin L)/Ki(calpain)<50) | ++ (++ means a Ki(cathepsin S)/Ki(calpain) ratio of ≧100)
CS(=O)(=O)NCc1cn(-c2ncccc2C(=O)NC(Cc2ccccc2)C(=O)C(N)=O)nc1-c1ccc(F)cc1 (stereo not drawn) [Example 187, N-[3-Amino-2,3-dioxo-1-(phenylmethyl)propyl]-2-[3-(4-fluorophenyl)-4-{[(methylsulfonyl)amino]methyl}-1H-pyrazol-1-yl]pyridine-3-carboxamide] | + (+ means 30≦Ki(cathepsin L)/Ki(calpain)<50) | ++ (++ means a Ki(cathepsin S)/Ki(calpain) ratio of ≧100)
NC(=O)C(=O)C(Cc1ccccc1)NC(=O)c1cccnc1-n1cnc(-c2ccc(Cl)cc2)c1 (stereo not drawn) [Example 9, N-(3-Amino-1-benzyl-2,3-dioxopropyl)-2-[4-(4-chlorophenyl)-1H-imidazol-1-yl]nicotinamide] | + (+ means 30≦Ki(cathepsin L)/Ki(calpain)<50) | ++ (++ means a Ki(cathepsin S)/Ki(calpain) ratio of ≧100)
CCCCC(NC(=O)c1cccnc1-n1cnc(-c2ccc(N3CCOCC3)cc2)c1)C(=O)C(N)=O.Cl (stereo not drawn) [Example 15, N-{1-[Amino(oxo)acetyl]pentyl}-2-[4-(4-morpholin-4-ylphenyl)-1H-imidazol-1-yl]nicotinamide hydrochloride] | ++ (++ means a Ki(cathepsin L)/Ki(calpain) ratio of ≧50) | + (+ means 50≦Ki(cathepsin S)/Ki(calpain)<100)
CCCCC(NC(=O)c1cccnc1-n1ccc(-c2cccc(N3CCOCC3)c2)n1)C(=O)C(N)=O (stereo not drawn) [Example 59, N-{1-[Amino(oxo)acetyl]pentyl}-2-[3-(3-morpholin-4-ylphenyl)-1H-pyrazol-1-yl]nicotinamide] | ++ (++ means a Ki(cathepsin L)/Ki(calpain) ratio of ≧50) | + (+ means 50≦Ki(cathepsin S)/Ki(calpain)<100)
Cl.NC(=O)C(=O)C(Cc1ccccc1)NC(=O)c1cccnc1-n1cnc(-c2ccc(C(F)(F)F)cc2)c1 (stereo not drawn) [Example 18, N-(3-Amino-1-benzyl-2,3-dioxopropyl)-2-{4-[4-(trifluoromethyl)phenyl]-1H-imidazol-1-yl}nicotinamide hydrochloride] | + (+ means 30≦Ki(cathepsin L)/Ki(calpain)<50) | ++ (++ means a Ki(cathepsin S)/Ki(calpain) ratio of ≧100)
N#Cc1ccc(-c2ccn(-c3ncccc3C(=O)NC(Cc3ccccc3)C(=O)C(N)=O)n2)cc1 (stereo not drawn) [Example 62, N-(3-Amino-1-benzyl-2,3-dioxopropyl)-2-[3-(4-cyanophenyl)-1H-pyrazol-1-yl]nicotinamide] | ++ (++ means a Ki(cathepsin L)/Ki(calpain) ratio of ≧50) | ++ (++ means a Ki(cathepsin S)/Ki(calpain) ratio of ≧100)
